# According to patent publication US8299237B2, “Nucleic acid sequences comprising NF-κB binding site within O(6)-methylguanine-DNA-methyltransferase (MGMT) promoter region and uses thereof for the treatment of cancer and immune-related disorders” (Hadasit Medical Research Services & Development Ltd., priority 2007, dated 2012):
# Assays:
# T98MG gliomas cell line = format: cell-based, human; conditions: 2.5 mM TMZ without LMODN
# Experimental: T98MG glioma cell line cells were treated with increasing doses of the decoy ODN's of the invention. Double stranded ODNs (30mers), corresponding to MGMT-κB1 binding site (as also denoted by SEQ. ID. NO. 1), and control ODNs were purchased from IDT. Each strand of ODN was thirty-mers and contained six LNA nucleotides. The following ODNs were used: MGMT-kB1forward: 5′---+T+AATGGGG+ACTTTAC GGG+[…]+A+T---3′ (as also denoted by SEQ. ID. NO. 40) with or without the 5′ end labeled with carboxyfluorescein-5-succimidyl ester (FAM). The MGMT-kB1 reverse ODN: 5′---+A+TTCTGTA+[…]+[…]+T+A---3′ as also denoted by SEQ ID NO. 41). Control forward: 5′---+T+AG TGT CG+A CTT CAC TCT+ACT TGA CAG A+A+T---3′ (as also denoted by SEQ ID NO. 42), control reverse: 5′---+A+TT CTG TC+A AGT AGA GTG+AAG TCG ACA C+T+A---3′ as also denoted by SEQ ID NO. 43). It should be noted that (+designated as nucleotide containing an LNA modification).
# The viability of the cells was tested 24-48 hrs later by CellTiter-Blue assay (Promega®). The assay was carried out according to the supplier's instructions. Briefly, the assay is based on the ability of living cells to convert a redox dye (resazurin) into a fluorescent end product (resorufin). Cell viability estimation is done by measuring the fluorescent intensity of resorufin (ex. 560 nm, em. 590 nm) using a fluorescent microplate reader.
# The inventors next tested the potential of the decoy LMODN molecules of the invention to sensitize tumor cells to alkylating agents and thereby improve their efficacy as anti-cancerous treatment. Therefore, several human cancer cell lines were treated with alkylating agents with increasing doses of MGMT-kB1-ODN followed by cell viability tests. First, the sensitivity of each cell line to several alkylating agents, mainly temozolomide (TMZ) and BCNU was calibrated. At 24 hrs following sowing, cells were exposed for two hours to increasing concentrations of the alkylating agent and viability of the cells was tested 24-48 hrs later by CellTiter-Blue assay (Promega®). To test the potential of MGMT-kB1-LMODN to sensitize tumor cells to alkylating agents in-vitro, increasing doses of LMODNs MGMT-kB1 forward and reverse as denoted by SEQ ID NO. 40 and 41, respectively), with or without the 5′ end labeled with carboxyfluorescein-5-succimidyl ester (FAM), as well as the control LMODNs (as denoted by SEQ ID NO. 42 and 43), were liposomally introduced (Lipofectamine 2000, Invitrogen) to various tumor cancer cells. Twenty four hours later, cells were treated with the different doses of alkylating agents as calibrated before.
# FIG. 9 represents an example of T98MG gliomas cell line sensitized to alkylating agents in response to treatment with the LMODN's of the invention. […]
# NF-κB/p65 = molecular target: T1, NF-κB/p65 (Homo sapiens, UniProt Q04206); test: Gel electrophoretic mobility shift assay (EMSA) with HeLa nuclear extracts; format: binding; conditions: nuclear extracts from Hela cells exposed to TNFα (200 u/ml)
# T1 construct: 10 μg of nuclear extracts with 0.3 ng of ^32P-labeled synthetic double-stranded oligodeoxynucleotides; endogenous in cells; host or cells: HeLa cells treated with TNFα (nuclear extract)
# T1 sequence (Q04206 whole entry): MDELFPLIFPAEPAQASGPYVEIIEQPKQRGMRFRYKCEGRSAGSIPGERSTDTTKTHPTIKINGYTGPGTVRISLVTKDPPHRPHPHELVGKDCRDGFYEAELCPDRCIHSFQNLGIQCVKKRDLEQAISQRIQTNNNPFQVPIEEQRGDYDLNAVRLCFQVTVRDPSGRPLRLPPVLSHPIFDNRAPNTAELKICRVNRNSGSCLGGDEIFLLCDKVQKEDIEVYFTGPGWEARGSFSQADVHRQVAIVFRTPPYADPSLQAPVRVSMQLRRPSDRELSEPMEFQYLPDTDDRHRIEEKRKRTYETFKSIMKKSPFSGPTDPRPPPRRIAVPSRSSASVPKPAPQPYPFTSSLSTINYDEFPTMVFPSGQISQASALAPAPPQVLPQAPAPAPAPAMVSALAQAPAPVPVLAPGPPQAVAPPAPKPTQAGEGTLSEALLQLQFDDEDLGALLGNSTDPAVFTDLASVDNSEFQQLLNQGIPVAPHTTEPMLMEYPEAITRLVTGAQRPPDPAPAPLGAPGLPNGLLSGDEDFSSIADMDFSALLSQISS
# Experimental: Nuclear extracts were prepared from HeLa cells treated with 200 units/ml of TNFα for 15 min. Oligodeoxynucleotides spanning the NF-κB binding site within the MGMT promoter (also denoted by SEQ ID NO. 4 and 5), with or without a C-G mutation (also denoted by SEQ ID NO. 6 and 7) or the consensus NF-κB site from HIV LTR (SEQ ID NO. 3, also shown in FIG. 1B), were end-labeled by a fill-in reaction using the Klenow fragment of DNA polymerase (New England Biolabs, Beverly, Mass.). DNA binding reactions were performed by incubation on ice for 15 min of 10 μg of nuclear extracts with 0.3 ng of ^32P-labeled synthetic double-stranded oligodeoxynucleotides in the presence of 10 mM Hepes, pH 7.9, 10% glycerol, 50 mM KCl, 5 mM MgCl2, 5 mM dithiothreitol, 2 μg of poly (dI·dC), and 0.1% Nonidet P-40. Competitor oligonucleotides were incubated in 100-fold molar excess and preincubated in the reaction mixtures for 10 min before addition of the radiolabeled probe. For supershift experiments, 1 μl of p65 antibody (MAB16200, Chemicon International Inc., Temecula, Calif.) was added during the preincubation period.
# To explore whether the NF-κB sites found within the MGMT promoter actually bind NF-κB, the inventors next performed an EMSA analysis of nuclear extracts from HeLa cells treated with TNFα and with labeled DNA fragments spanning the region containing the NF-κB motif. As shown by FIG. 1C, this process generated a nuclear binding factor specific for these regions (FIG. 1C, lanes 5 and 9), of the same size as the complex attached to the consensus HIV-κB site as also denoted by SEQ ID NO. 3 (FIG. 1C, lane 2) as indicated by the black arrows. […] Binding specificity was confirmed by competition with cold HIV-κB oligonucleotide. […] This confirmed that p65 binds to both NF-κB putative sites. The upper band in lane 9 (FIG. 1C) is not the same size as the NF-κB complex attached to the canonical HIV-κB oligonucleotide (FIG. 1C, lane 2). It was neither shifted when incubated with NF-κB/p65 antibodies (lane 10), nor abolished in the presence of unlabeled HIV-κB probe (FIG. 1C, lane 11). Based on the finding that the MGMT-κB2 binding site overlaps the Sp1 site, the inventors speculate that this complex may further contain Sp1. This speculation is also supported by its size, which is the same as that of the complex attached to the Sp1 oligonucleotide (FIG. 1C, lane 1).
# [1] = tested on: MGMT-kB1-Luc reporter construct induced by NF-κB/p65; test: Luciferase reporter assay, MGMT-kB1-Luc co-transfected with NF-κB/p65; format: cell-based, human
# Experimental: Transient transfections were performed in 6-well plates, using the FuGene6 transfection reagent (Roche Diagnostics GmbH, Mannheim, Germany), according to the manufacturer's instructions. U87MG, T98G, and A172 cells were transfected with pNF-κB-Luc reporter Vector (Clontech, Palo Alto, Calif.), while RG2 and U87MG were transfected with MGMT-Luc [construct p-954/+24 mL [Biswas T. et al. Oncogene 18:525-32 (1999)] kindly provided by Sankar Mitra] (1 μg/well). CMVβ-galactosidase expression vector (CMVβgal-Clonthech) was included (0.1 μg/well) in each transfection to normalize transfection efficiency. HEK293 cells were transfected with CMVβgal alone or along with one or more of the following plasmids: CMVp65, CMVΔNIκB, CMVp50, CMVcJun. CMVp65 and CMVΔNIκB plasmids were kindly provided by Prof. Yinon. Ben-Neriah (The Hebrew University, Jerusalem, Israel), CMVp50 and CMVcJun were kindly provided by Dr. Danielle Melloul (Hadassah Hebrew University Medical Center, Jerusalem, Israel).
# At 24 hrs following transfection, the cells were lysed for 15 min on ice with 200 μl of luciferase lysis buffer (Promega, Madison, Wis.). Luciferase assays were carried out using a Promega assay kit and a luminometer (EG&G Berthold, Bad Wildbad, Germany). The activity was normalized to β-galactosidase activity (Promega) and plotted as the mean±s.d. of triplicates from a representative experiment.
# For the cloning of the MGMT-luc constructs the reporter vector p-TA-Luc (Clontech, Palo Alto, USA) was used. The plasmid contains TATA box motif upstream to a luciferase reporter gene. A double stranded DNA corresponding to four repeats of each sequence as indicated by FIG. 8A (also denoted by SEQ ID NO. 44, 45, 46 and 47), was synthesis by syntezza LTD and ligated upstream to the TATA box.
# To test the activity of these sites, several luciferase reporter genes bearing four copies of either intact or mutant sequence, of each of the two NF-κB sites (NF-κB1 and NF-κB2), were constructed as indicated in Experimental procedures. […] An inhibition of approximately 50% was observed using 100 nM ODN. Negative control using the CMVΔNIκB (ΔN)-Luc construct as well as positive control using the canonical HIV-κB-Luc reporter construct, confirmed validity of the data.
# Induction of over expression of NF-κB in HEK 293T cells by transfection of a CMV-NF-κB/p65 generated a 50-fold elevation in luciferase expression driven by the Co-transfected reporter construct MGMT-kB1-Luc. […] Inhibition of approximately 90% was induced by 150 nM LMODN. […] No inhibition was detected when a mutant LMODN was introduced into the cells, indicating the specificity of MGMT-kB1-LMODN (of SEQ ID NO. 40 and 41). […] 3 (HIV-κB-Luc construct).
compound,measurement,setting,value
"Cn1nnc2c(C(N)=O)ncn2c1=O [TMZ, temozolomide]",live cells,T98MG gliomas cell line,60%
"HIV-κB: consensus NF-κB site from HIV LTR, control probe (DNA GGCTTCAGAGGGGACTTTCCGAGA; labeled probe, label not given here, further chemistry not given here; listed as Homo sapiens)",binding of NF-κB in nuclear extract to 32P-labeled probe (in words),NF-κB/p65,formation of complexes of a similar size
"MGMT-κB1 Mut: MGMT-κB1 oligonucleotide with mutated site (C-to-G substitution) (DNA TGATGGCTTCTGTAAAGTCGGCATCTCCAAATAAGGTCAC; DNA, backbone not given here; further chemistry not fully specified; listed as Homo sapiens)",binding of NF-κB in nuclear extract to 32P-labeled probe (in words),NF-κB/p65,Specific binding was not observed
"MGMT-κB2 Mut: MGMT-κB2 oligonucleotide with mutated site (C-to-G substitution) (DNA GGCGGGAACACGGCGCCCCGCCCG; DNA, backbone not given here; further chemistry not fully specified; listed as Homo sapiens)",binding of NF-κB in nuclear extract to 32P-labeled probe (in words),NF-κB/p65,Specific binding was not observed
"MGMT-κB2: EMSA oligodeoxynucleotide probe spanning the NF-κB binding site MGMT-κB2 within the MGMT promoter (DNA GGCGGGAACACCCCGCCCCGCCCG; DNA, backbone not given here; further chemistry not fully specified; listed as Homo sapiens)",binding of NF-κB in nuclear extract to 32P-labeled probe (in words),NF-κB/p65,formation of complexes of a similar size
"MGMT-κB-1: EMSA oligodeoxynucleotide probe spanning the NF-κB binding site MGMT-κB1 within the MGMT promoter (DNA TGATGGCTTCTGTAAAGTCCCCATCTCCAAATAAGGTCAC; DNA, backbone not given here; further chemistry not fully specified; listed as Homo sapiens)",binding of NF-κB in nuclear extract to 32P-labeled probe (in words),NF-κB/p65,formation of complexes of a similar size
"SEQ ID NO. 36 and 37: double stranded LNA modified ODN decoy of MGMT-kB1 site; forward SEQ ID NO. 36, reverse SEQ ID NO. 37 (sense TAAGAGGGACTTTACGGGACTTTACTACAT; antisense ATGTAGTAAGTCCCGTAAAGTCCCTCTTA; LNA modifications, chemistry not fully specified; listed as Homo sapiens) [double stranded LNA modified ODN decoy of MGMT-kB1 site; 37]",inhibition of luciferase activity,"[1]; 100 nM ODN, HEK293T, MGMT-κB1 reporter construct + NF-κB/p65 (FIG. 7)",approximately 50%
same,effect on luciferase activity driven by MGMT-kB1 reporter (in words),[1]; HEK293T co-transfected with MGMT-kB1 reporter and NF-κB/p65,decreased the luciferase activity in a dose-dependent manner
